Key:
Format in all cases: cell-based
MCF7 cells = test: Real time RT-PCR of miRNAs in hormone-treated MCF7 cells; details: MCF7, estradiol and ICI
Experimental: Hormone Treatments. MCF7 cells were grown in phenol red-free media containing charcoal stripped serum for 24 hours prior to hormone treatments. The cells were treated with ethanol, 10 nM estradiol or a combination of 10 nM estradiol and 1 mM ICI 182,780 (ICI, Tocris Bioscience) for 6 h, 24 h or 48 h, as indicated, before harvesting RNA using Trizol (Invitrogen) as per the manufacturer's instructions.
Real Time RT-PCR. Poly A tailing and reverse transcription was performed using the NCode miRNA qRT-PCR kit (Invitrogen) as per manufacturer's instructions. SYBR green real time RT-PCR was performed using the Universal Forward Primer (Invitrogen) and miRNA specific primers. The specific primers used were: miR-193b 5′-[…]-3′ (SEQ ID NO: 10); miR-19b 5′-[…]-3′ (SEQ ID NO: 11); miR-20a 5′-[…]-3′ (SEQ ID NO: 12); miR-106a 5′-[…]-3′ (SEQ ID NO: 13); and miR-92b* 5′-[…]-3′ (SEQ ID NO: 14). Reported values are the means and standard errors of 3 biological replicates.
For miR-22, miR-221 and miR-7, taqman real time PCR was performed. Prior to generating cDNA, mRNA was treated with DNase1 (Invitrogen) for 15 min at room temperature. RNA was reverse transcribed into cDNA in a reaction containing reaction buffer, 10 mM DTT, 1 mM dNTPs, RNAse inhibitor (Promega), random hexamers (250 ng) and 200 U of MMUV-RT (ABI). The reaction proceeded at 25° C. for 10 min, then at 37° C. for 1 h. For normalization, real time RT-PCR was performed on the cDNA using ribosomal RNA primers and probe (ABI). TaqMan mRNA Reverse Transcription kit was used to generate cDNA for real time RT-PCR reaction in conjunction with a miR-22, miR-221 or miR-7 specific primers and probe (ABI). Reported values are the means and standard errors of three biological replicates.
The relative mRNA or miRNA levels were calculated using the comparative Ct method (ΔΔCt). Briefly, the Ct (cycle threshold) values for the rRNA were subtracted from Ct values of the target gene to achieve the ΔCt value. The 2^−ΔCt was calculated for each sample and then each of the values was then divided by a control sample to achieve the relative miRNA levels (ΔΔCt).

FASN = test: Immunoblot of FASN in triple-negative (BT549) cells after miR-193b mimic transfection; details: TN cells (BT549), 50 nM mimic, 72 h
Experimental: (§1) Transfections. BT549 or MDA-MB-231 cells were plated one day prior to transfection. Lipofectamine 2000 (Invitrogen) was incubated with the miRNA mimics for miR-22, miR-221, miR-193b or miR-7 (Ambion) or scrambled negative control (Ambion) at a concentration of 50 nM incubated in serum free media for 20 minutes prior to addition to the cells. Cells were incubated with the transfection mix at 37° C. for 4 h before replacement of FBS to 5%. Protein was harvested 72 h post-transfection using RIPA lysis buffer (1% NP40, 0.5% NaDeoxycholate, 0.1% SDS, 50 mM Tris, 150 mM NaCl, 5 mM EDTA) containing protease inhibitors.
(§2) Immunoblotting. Cell lysates (50 μg) in SDS sample buffer were denatured and separated on 8% SDS PAGE gels and transferred to PVDF membranes. The membranes were blocked in 5% milk in TBS-T, and then probed overnight at 4° C. […] After incubation with appropriate HRP-conjugated secondary antibody, results were detected using Western Lightning Chemiluminescence Reagent Plus (Perkin Elmer).

[1] = test system: BT549 (triple negative) cells; test: Apoptosis (PARP cleavage immunoblot) in triple-negative (BT549) cells; details: TN cells (BT549), 50 nM mimic, 72 h
Experimental: as §1, §2

[2] = test system: MCF10A (normal immortalized) cells; test: Apoptosis in MCF10A cells after miR-193b transfection
ESR1 3′UTR = test: Luciferase reporter assay, ESR1 3′UTR region ESR1-1, in MCF7 cells; details: ESR1-1 reporter, 50 nM each mimic, versus scrambled negative control
Source text: Luciferase Assays. A 360 bp fragment of the 3′ untranslated region of ESR1 containing the putative binding sites for miR-203, miR-221 and miR-22 was amplified by PCR from HeLa genomic DNA (NEB) using the following primers: ESR1-1 F 5′-[…]-3′ (SEQ ID NO: 6) and ESR1-1 R 5′-[…]-3′ (SEQ ID NO: 7). A 680 bp fragment containing the putative binding sites for miR-130/301, miR-148/152, miR-19 and miR-26 was amplified using the following primers: ESR1-2 F 5′-[…]-3′ (SEQ ID NO: 8) and ESR1-2 R 5′-[…]-3′ (SEQ ID NO: 9). MCF7 cells (20,000 cells/well) in a 96-well plate were transfected with the 100 nM of the negative control, 50 nM each of the miR-22, miR-221 or both as described above. After 24 h, the firefly reporter plasmid (0.196 μg) and a renilla luciferase normalization plasmid (0.004 μg/pRL-SV40, Promega) were transfected in using Lipofectamine 2000. Cells were collected 48 hours later for assay using the Dual Luciferase Reporter assay system (Promega).

Q: For `C[C@]12CC[C@@H]3c4ccc(O)cc4C[C@@H](CCCCCCCCC[S+]([O-])CCCC(F)(F)C(F)(F)F)[C@H]3[C@@H]1CC[C@@H]2O` (stereo partly drawn) [ICI, ICI 182,780], which “estradiol effect on miR-92b*” value (MCF7 cells; 24 h) is on record?
A: reversed

Q: And the “estradiol effect on miR-19b” value (MCF7 cells; 48 h)?
A: abrogated

Q: What about the “estradiol effect on miR-20a” value (MCF7 cells; 48 h) of the same compound?
A: abrogated

Q: What about the “estradiol effect on miR-106a” value (MCF7 cells; 48 h) of the same compound?
A: abrogated

Q: With “miR-193b mimic: miRNA mimic for miR-193b (Ambion); miR-193b is SEQ ID NO:1 aacuggcccucaaagucccgcu (AACUGGCCCUCAAAGUCCCGCU; mimic duplex, complementary strand not listed, further chemistry not given here)” as the compound, how does the FASN protein (FASN) read?
A: almost complete repression

Q: And the PARP cleavage [1]?
A: complete PARP cleavage

Q: And the “apoptosis, as seen by the appearance of cleaved PARP” value [1]?
A: increase in apoptosis

Q: And the apoptosis [2]?
A: no apoptosis

Q: Which “decrease in luciferase activity” value (ESR1 3′UTR) does the source give for “miR-221 mimic: miRNA mimic for miR-221 (Ambion); hsa-miR-221 sequence agcuacauugucugcuggguuuc (AGCUACAUUGUCUGCUGGGUUUC; chemistry not given here)” here?
A: 13.7%

— US8507195B2, “MiRNAs dysregulated in triple-negative breast cancer” (The Regents of the University of Colorado, priority 2009, dated 2013)
